From ChEMBL document CHEMBL3421567, “Non-electrophilic modulators of the canonical Keap1/Nrf2 pathway” (Bioorg Med Chem Lett, 2015)
Residues, ends and D or L forms follow the SMILES beside them.

Assays:
Assay type in all cases: protein assay
[1] = biological target: T1, Keap1/Nrf2 (Homo sapiens, UniProt Q14145+Q16236); experiment: Binding affinity to Keap1/Nrf2 complex (unknown origin) by fluorescence polarization assay
[2] = biological target: T1, Keap1/Nrf2; experiment: Inhibition of Keap1/Nrf2 complex (unknown origin)
[3] = biological target: T1, Keap1/Nrf2; experiment: Binding affinity to Keap1/Nrf2 complex (unknown origin) by ITC method

T1 sequence (Q16236 whole entry): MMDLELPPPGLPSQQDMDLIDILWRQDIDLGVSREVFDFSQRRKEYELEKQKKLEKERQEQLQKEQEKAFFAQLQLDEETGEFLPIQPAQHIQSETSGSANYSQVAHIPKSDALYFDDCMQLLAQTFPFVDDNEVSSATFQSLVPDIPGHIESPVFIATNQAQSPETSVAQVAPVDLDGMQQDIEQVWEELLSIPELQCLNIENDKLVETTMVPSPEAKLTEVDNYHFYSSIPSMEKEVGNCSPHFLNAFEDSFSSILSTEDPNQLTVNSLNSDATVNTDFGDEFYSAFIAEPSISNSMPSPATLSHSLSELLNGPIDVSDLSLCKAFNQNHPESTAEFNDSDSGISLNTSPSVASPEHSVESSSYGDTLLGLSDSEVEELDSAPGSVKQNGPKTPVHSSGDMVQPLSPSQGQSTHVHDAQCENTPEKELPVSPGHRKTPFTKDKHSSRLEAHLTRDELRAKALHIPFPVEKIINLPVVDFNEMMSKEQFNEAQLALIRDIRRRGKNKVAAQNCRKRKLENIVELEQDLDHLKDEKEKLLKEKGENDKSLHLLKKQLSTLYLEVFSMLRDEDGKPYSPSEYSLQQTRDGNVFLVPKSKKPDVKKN
T1 sequence (Q14145 whole entry): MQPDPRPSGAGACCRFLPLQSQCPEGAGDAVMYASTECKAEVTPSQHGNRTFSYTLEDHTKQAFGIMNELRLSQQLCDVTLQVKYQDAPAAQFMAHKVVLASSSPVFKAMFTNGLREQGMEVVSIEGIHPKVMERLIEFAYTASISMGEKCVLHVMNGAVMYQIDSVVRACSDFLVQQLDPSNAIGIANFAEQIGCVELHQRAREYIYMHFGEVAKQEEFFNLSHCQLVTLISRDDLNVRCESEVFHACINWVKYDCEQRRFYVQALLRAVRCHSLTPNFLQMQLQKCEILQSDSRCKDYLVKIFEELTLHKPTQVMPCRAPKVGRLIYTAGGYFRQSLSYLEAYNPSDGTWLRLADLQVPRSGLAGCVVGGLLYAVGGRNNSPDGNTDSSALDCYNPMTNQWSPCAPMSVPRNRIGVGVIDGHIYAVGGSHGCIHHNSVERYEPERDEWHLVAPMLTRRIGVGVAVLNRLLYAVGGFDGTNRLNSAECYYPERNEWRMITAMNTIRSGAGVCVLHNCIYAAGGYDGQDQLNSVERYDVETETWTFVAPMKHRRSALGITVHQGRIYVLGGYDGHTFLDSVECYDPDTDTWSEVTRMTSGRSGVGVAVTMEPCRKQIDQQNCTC

Kd [3] [µM] | SMILES | also measured
– | CC[C@H](C)[C@H](NC(=O)[C@@H]1CCCN1C(=O)[C@H](CC(C)C)NC(=O)[C@H](Cc1ccccc1)NC(=O)[C@H](CCC(=O)O)NC(=O)CNC(=O)[C@@H](NC(=O)[C@H](CCC(=O)O)NC(=O)[C@H](CCC(=O)O)NC(=O)[C@H](CC(=O)O)NC(=O)[C@H](CC(C)C)NC(=O)[C@H](CCC(N)=O)NC(=O)[C@@H](N)CC(C)C)[C@@H](C)O)C(=O)N[C@@H](CCC(N)=O)C(=O)O | Kd [1]: 0.0619 µM
– | Cc1cccc2c1CCN(C(=O)[C@H]1CCCC[C@H]1C(=O)O)[C@@H]2CN1Cc2ccccc2C1=O | IC50 [2]: 0.75 µM
1 | CC(C)C[C@H](NC(=O)[C@@H](N)CC(=O)O)C(=O)NCC(=O)O (H-Asp-Leu-Gly-OH) | –
0.005 | C[C@@H](O)[C@H](NC(=O)[C@@H](N)CCC(=O)O)C(=O)NCC(=O)N[C@@H](CCC(=O)O)C(=O)O (H-ETGE-OH) | –
